Data taken from ChEMBL document CHEMBL1141262, “Cytotoxic diterpenoids from the hybrid soft coral Sinularia maxima x Sinularia polydactyla” (2007).

Tests used:
Type in all cases: functional
[1] = system: DU-145; test: Cytotoxicity against human DU145 cells after 72 hrs; settings: for CC50: read-out: LC50 (the source's name)
[2] = system: LNCaP; test: Cytotoxicity against human LNcaP cells after 72 hrs; settings: for CC50: read-out: LC50 (the source's name)
[3] = Cytotoxicity against human IGROV cells after 72 hrs; settings: for CC50: read-out: LC50 (the source's name)
[4] = Cytotoxicity against ET-743 resistant human IGROV cells after 72 hrs
[5] = system: SK-BR-3; test: Cytotoxicity against human SK-BR3 cells after 72 hrs; settings: for CC50: read-out: LC50 (the source's name)
[6] = system: A549; test: Cytotoxicity against human A549 cells after 72 hrs
[7] = system: K562; test: Cytotoxicity against human K562 cells after 72 hrs; settings: for CC50: read-out: LC50 (the source's name)
[8] = system: PANC-1; test: Cytotoxicity against human PANC1 cells after 72 hrs; settings: for CC50: read-out: LC50 (the source's name)
[9] = system: HT-29; test: Cytotoxicity against human HT29 cells after 72 hrs
[10] = system: LoVo; test: Cytotoxicity against human LoVo cells after 72 hrs; settings: for CC50: read-out: LC50 (the source's name)
[11] = system: LoVo; test: Cytotoxicity against doxorubicin resistant human LoVo cells after 72 hrs
[12] = system: HeLa; test: Cytotoxicity against human HeLa cells after 72 hrs; settings: for CC50: read-out: LC50 (the source's name)
[13] = system: HeLa; test: Cytotoxicity against aplidine resistant human HeLa cells after 72 hrs; settings: for CC50: read-out: LC50 (the source's name)
[14] = system: SK-MEL-28; test: Cytotoxicity against human SK-MEL-28 cells after 72 hrs

## C=C(C)[C@H]1C/C2=C(\C(=O)OC)C(OC(C)CC)C(=O)/C=C(\C)C[C@@H]3C=C(C(=O)O3)[C@H](C1)O2 (stereo in doubt; 3)
[1]
  GI50: 1.95 µM
[1]; Homo sapiens, DU-145, 72 h
  TGI: 5.31 µM
  CC50: 13.5 µM
[2]
  GI50: 1.69 µM
  TGI: 5.17 µM
  CC50: 14.3 µM
[3]
  GI50: 0.52 µM
  TGI: 1.1 µM
  CC50: 3.3 µM
[4]
  GI50: 1.03 µM
  TGI: 3.64 µM
[4]; Homo sapiens, IGROV, 72 h
  LC50 (50% lethal concentration): 20.4 µM
[5]
  GI50: 0.039 µM
  TGI: 0.28 µM
[5]; Homo sapiens, SK-BR-3, 72 h
  CC50: > 22.5 µM
[6]
  GI50: 1.32 µM
  TGI: 4.59 µM
[6]; Homo sapiens, A549, 72 h
  LC50: 16.3 µM
[7]
  GI50: 1.21 µM
  TGI: 2.47 µM
[7]; Homo sapiens, K562, 72 h
  CC50: 10.6 µM
[8]
  GI50: 0.58 µM
  TGI: 1.57 µM
  CC50: 7.4 µM
[9]
  GI50: 1.47 µM
  TGI: 4.14 µM
[9]; Homo sapiens, HT-29, 72 h
  LC50 (concentration killing 50% of cells): 11.1 µM
[10]
  GI50: 0.51 µM
  TGI: 1.16 µM
  CC50: 3.8 µM
[11]
  GI50: 0.75 µM
[11]; Homo sapiens, LoVo, 72 h
  LC50: 13.8 µM
  TGI: 2.72 µM
[12]
  GI50: 0.48 µM
  TGI: 0.93 µM
  CC50: 1.8 µM
[13]
  GI50: 0.56 µM
  TGI: 1.31 µM
  CC50: 5.26 µM
[14]
  GI50: 0.54 µM
  LC50: 2.13 µM
  TGI: 1.08 µM

## C=C(C)[C@H]1C/C2=C(\C(=O)OC)[C@@H]3O[C@@](C)(CC3=O)C[C@@H]3C=C(C(=O)O3)[C@H](C1)O2
[1]; Homo sapiens, DU-145, 72 h
  GI50: 4.35 µM
  TGI: 8.32 µM
  CC50: 15.9 µM
[2]
  GI50: 5.05 µM
  TGI: 8.96 µM
  CC50: 15.9 µM
[3]; Homo sapiens, IGROV, 72 h
  GI50: 4.05 µM
  TGI: 7.68 µM
  CC50: 14.6 µM
[4]; Homo sapiens, IGROV, 72 h
  GI50: 4.56 µM
  LC50 (50% lethal concentration): 16.5 µM
  TGI: 8.68 µM
[5]; Homo sapiens, SK-BR-3, 72 h
  GI50: 6.4 µM
  TGI: 11.4 µM
  CC50: 20.3 µM
[6]; Homo sapiens, A549, 72 h
  GI50: 5.56 µM
  LC50: 25.6 µM
  TGI: 11.9 µM
[7]; Homo sapiens, K562, 72 h
  GI50: 5.58 µM
  TGI: 8.89 µM
  CC50: 14.2 µM
[8]; Homo sapiens, PANC-1, 72 h
  GI50: 3.64 µM
  TGI: 7.15 µM
  CC50: 14.1 µM
[9]; Homo sapiens, HT-29, 72 h
  GI50: 6.48 µM
  LC50 (concentration killing 50% of cells): > 25.6 µM
  TGI: 15.4 µM
[10]; Homo sapiens, LoVo, 72 h
  GI50: 3.41 µM
  TGI: 6.61 µM
  CC50: 12.8 µM
[11]; Homo sapiens, LoVo, 72 h
  GI50: 5.66 µM
  LC50: > 25.6 µM
  TGI: 16.5 µM
[12]; Homo sapiens, HeLa, 72 h
  GI50: 4.38 µM
  TGI: 8.04 µM
  CC50: 14.8 µM
[13]; Homo sapiens, HeLa, 72 h
  GI50: 3.77 µM
  TGI: 7.5 µM
  CC50: 15 µM
[14]; Homo sapiens, SK-MEL-28, 72 h
  GI50: 4.25 µM
  LC50: 13.6 µM
  TGI: 7.61 µM

## C=C(C)[C@H]1C/C2=C(\C(=O)OC)C(OC(C)CC)C(=O)/C=C(\C)C[C@@H]3C=C(C(=O)O3)[C@H](C1)O2 (stereo in doubt; 2)
[1]
  GI50: 3.98 µM
  TGI: 7.56 µM
  CC50: 14.4 µM
[3]
  GI50: 3.4 µM
  TGI: 6.91 µM
  CC50: 14.1 µM
[4]
  GI50: 3.96 µM
  LC50 (50% lethal concentration): 15.8 µM
  TGI: 7.92 µM
[5]
  GI50: 0.58 µM
  TGI: 1.43 µM
[6]
  GI50: 5.85 µM
  LC50: > 22.5 µM
  TGI: 12.3 µM
[7]
  GI50: 5.26 µM
  TGI: 9.45 µM
  CC50: 17 µM
[8]
  GI50: 2.9 µM
  TGI: 6.91 µM
  CC50: 16.5 µM
[9]
  GI50: 4.93 µM
  LC50 (concentration killing 50% of cells): 18.5 µM
  TGI: 9.54 µM
[10]
  GI50: 3.46 µM
  TGI: 7.49 µM
  CC50: 16.2 µM
[11]
  GI50: 1.87 µM
  LC50: 11.9 µM
  TGI: 4.95 µM
[12]
  GI50: 3.33 µM
  TGI: 7.29 µM
  CC50: 16 µM
[13]
  GI50: 3.17 µM
  TGI: 8.5 µM
  CC50: 22.5 µM
[14]
  GI50: 3.13 µM
  LC50: 13.5 µM
  TGI: 6.5 µM
